Where “and” joins values, the source holds several entries; their conditions need not be identical. Identical values can stand only once.
System: humanized PXR-CAR-CYP3A4/3A7 mice, liver
Test: Liver cholesterol, C4 and lathosterol analysis (HFD study)
Type: in vivo, mouse
Design: liver total cholesterol (TotCh), individual animals / liver free cholesterol (Free CH), individual animals / liver cholesteryl esters (CE), individual animals / liver C4, individual animals / liver lathosterol, individual animals: unit not given here
Description: Cholesterol (Ch, total and free Ch), C4, and lathosterol determination were performed in liver tissue (25–80 mg fresh weight) using GC-MS according to Cohen et al.[67] (detailed protocol in Supplementary, Chapter 14). Internal standard (d7-cholesterol, Sigma Aldrich/Merck) was used. Solid phase extraction[68] and analysis were performed using LC-MS/MS as described previously. Protein quantification was done using DC Protein Assay (Bio-Rad) according to manufacturer instructions (micro assay format). All samples were analyzed for protein content in triplicates and analyzed.
Liver tissue (25-80 mg fresh weight) was diluted 10x with PBS (by weight), cut into small pieces using scissors, and treated with multiple (10-20) short pulses of ultrasound until a smooth homogenate was obtained. This 10% liver sonicate was used in subsequent analyses.
Lathosterol was measured using the same procedure as for free cholesterol with slight modifications: the volume of liver homogenate as well as the injection volume were increased (100 µL and 2 µL, respectively) while the amount of internal standard was reduced to approximately 100 ng. Also, the mixture was sonicated for 10 minutes after adding ethanol.
Liver sonicate (10%) was further diluted 30x (by weight) and 5 µL was analyzed using DC Protein Assay (Bio-Rad) according to manufacturer instructions (microassay format). Bovine serum albumin was used as standard. All samples were analyzed in triplicates.

[1] = male mice, MI-883 5 mg/kg 3× per week p.o., unit not given, 5 mg/kg

NC(=O)c1cc(Cn2cc(-c3c(-c4ccc(Cl)cc4)nc4cc(F)ccn34)nn2)ccc1Cl [MI-883, 2-chloro-5-((4-(2-(4-chlorophenyl)-7-fluoroimidazo[1,2-a]pyridin-3-yl)-1H-1,2,3-triazol-1-yl)methyl)benzamide]
free cholesterol in the liver (per liver protein or LW): significantly decreased
liver C4 and C4/total cholesterol: did not increase
liver lathosterol, total cholesterol, cholesteryl esters (CE): did not show significant changes
liver C4, individual animals [1]: 742.5 and 1060.6 and 588.1 and 517.8 and 1677.1 and 810.7 and 1283.7 and 1057.8 and 1099.9
liver cholesteryl esters (CE), individual animals [1]: 23 and 16.4 and 24.1 and 22.4 and 62.3 and 32.9 and 18.7 and 38.2 and 47.6
liver free cholesterol (Free CH), individual animals [1]: 40.3 and 36.2 and 35.7 and 37.4 and 37.7 and 32.3 and 38.3 and 39.6 and 40.5
liver lathosterol, individual animals [1]: 1.57 and 2.018 and 2.101 and 1.895 and 2.439
liver total cholesterol (TotCh), individual animals [1]: 63.3 and 52.6 and 59.8 and 100 and 65.2 and 57 and 77.8 and 88.1
